In patent publication US20050282743A1, “Molecular interactions in cells” (Arbor Vita Corporation, priority 2001, published 2005):
Where two headings read alike, the source gives them in different places. Values belong to the compound of their own block, whether it stands above or below them. Peptide text beside a SMILES is read from it. * marks the point of attachment. Biotin = O=C1N[C@H]2[C@H](CS[C@H]2CCCCC(=O)*)N1

Legend:
[1] = biological target: T1, PDZ-domain polypeptide (GST/PDZ fusion protein) (Homo sapiens, UniProt Q92796); assay: Apparent affinity (Kd) by titration of PL peptide in the G assay; format: binding; settings: PDZ NeDLG
T1 construct: made in house; host or cells: E. coli (DH5alpha, BL21 or JM109)
T1 sequence (Q92796 1-817): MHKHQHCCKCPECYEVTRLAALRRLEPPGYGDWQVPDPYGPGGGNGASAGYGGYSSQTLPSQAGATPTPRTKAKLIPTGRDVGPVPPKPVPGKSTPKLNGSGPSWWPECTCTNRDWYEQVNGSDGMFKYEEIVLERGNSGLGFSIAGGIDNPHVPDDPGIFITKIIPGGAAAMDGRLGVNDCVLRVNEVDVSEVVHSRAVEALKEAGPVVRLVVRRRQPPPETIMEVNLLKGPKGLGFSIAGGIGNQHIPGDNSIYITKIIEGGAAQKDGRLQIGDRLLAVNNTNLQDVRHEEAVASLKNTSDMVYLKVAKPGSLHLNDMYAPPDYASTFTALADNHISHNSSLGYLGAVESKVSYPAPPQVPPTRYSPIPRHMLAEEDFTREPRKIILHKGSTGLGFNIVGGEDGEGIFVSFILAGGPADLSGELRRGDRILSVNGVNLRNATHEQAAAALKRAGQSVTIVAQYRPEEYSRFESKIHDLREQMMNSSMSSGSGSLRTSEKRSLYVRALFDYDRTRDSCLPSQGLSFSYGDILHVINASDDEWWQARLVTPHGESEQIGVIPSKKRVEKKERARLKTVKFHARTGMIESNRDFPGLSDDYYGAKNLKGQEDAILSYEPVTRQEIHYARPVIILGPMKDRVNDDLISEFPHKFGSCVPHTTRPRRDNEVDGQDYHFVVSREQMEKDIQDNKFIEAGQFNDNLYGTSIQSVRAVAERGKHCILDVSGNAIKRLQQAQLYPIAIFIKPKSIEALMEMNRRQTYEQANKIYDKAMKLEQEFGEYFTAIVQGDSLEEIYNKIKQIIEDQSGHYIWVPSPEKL
Procedure, shortened: (§1)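 A fixed concentration of GST/PDZ fusion protein, 5 ug/ml by default, was mixed in solution with increasing labeled PL peptide (e.g. 0.1 uM-1 mM). Reaction times ranged from 10 minutes to 2 days at 4-37° C. Complexes were separated from free peptide and detected via the label as in the G assay, apparent affinity coming from the saturating concentration.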

[2] = biological target: T2, PDZ-domain polypeptide (GST/PDZ fusion protein) (Homo sapiens, UniProt Q02410); assay: as above; format: binding
T2 construct: made in house; host or cells: E. coli (DH5alpha, BL21 or JM109)
T2 sequence (Q02410 1-837): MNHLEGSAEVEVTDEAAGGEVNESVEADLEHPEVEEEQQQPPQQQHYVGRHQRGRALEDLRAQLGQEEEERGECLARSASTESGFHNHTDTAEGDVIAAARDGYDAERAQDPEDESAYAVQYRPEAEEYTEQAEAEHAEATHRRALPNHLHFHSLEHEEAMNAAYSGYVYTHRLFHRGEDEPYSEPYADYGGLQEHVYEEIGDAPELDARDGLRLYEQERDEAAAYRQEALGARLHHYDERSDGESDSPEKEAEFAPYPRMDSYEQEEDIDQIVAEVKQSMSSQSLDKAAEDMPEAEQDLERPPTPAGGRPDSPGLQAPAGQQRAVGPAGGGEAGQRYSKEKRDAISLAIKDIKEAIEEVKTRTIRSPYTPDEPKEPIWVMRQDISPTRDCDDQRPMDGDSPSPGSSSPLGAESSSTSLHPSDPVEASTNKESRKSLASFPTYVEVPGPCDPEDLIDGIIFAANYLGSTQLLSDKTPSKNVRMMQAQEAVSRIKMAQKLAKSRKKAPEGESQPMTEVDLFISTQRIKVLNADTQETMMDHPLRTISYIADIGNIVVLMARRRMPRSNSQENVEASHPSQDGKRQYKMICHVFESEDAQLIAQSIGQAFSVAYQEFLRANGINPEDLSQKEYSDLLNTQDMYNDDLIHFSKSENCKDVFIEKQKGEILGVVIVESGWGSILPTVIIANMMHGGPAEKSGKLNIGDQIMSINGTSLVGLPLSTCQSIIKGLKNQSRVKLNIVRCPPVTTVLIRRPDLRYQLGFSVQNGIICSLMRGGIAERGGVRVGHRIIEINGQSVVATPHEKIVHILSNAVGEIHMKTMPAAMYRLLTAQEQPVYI
Procedure, shortened: as §1

SMILES: CC[C@H](C)[C@H](NC(=O)[C@H](CCCCN)NC(=O)[C@@H](NC(=O)[C@H](CO)NC(=O)[C@@H]1CCCN1C(=O)[C@H](Cc1ccccc1)NC(=O)[C@@H](NC(=O)[C@@H](NC(=O)[C@H](CCCNC(=N)N)NC(=O)[C@H](CCC(=O)O)NC(=O)[C@H](CC(C)C)NC(=O)[C@H](CC(C)C)NC(=O)[C@H](CC(C)C)NC(=O)[C@@H](NC(=O)CNC(=O)[C@@H](NC(=O)CCCC[C@@H]1SC[C@@H]2NC(=O)N[C@@H]21)C(C)C)[C@@H](C)O)C(C)C)[C@@H](C)CC)C(C)C)C(=O)N[C@@H](C)C(=O)N[C@H](C(=O)N[C@@H](CC(C)C)C(=O)N[C@H](C(=O)O)C(C)C)[C@@H](C)O [Adenovirus E4 Type9]
Kd ([1]; PDZ Domain 2, Protein Optimal Conc 5, read-out: Peptide Optimal Conc (Kd by titration of the PL peptide)): 100 nM

SMILES: CC[C@H](C)[C@H](NC(=O)[C@H](CO)NC(=O)[C@@H](NC(=O)[C@H](Cc1ccccc1)NC(=O)[C@H](CO)NC(=O)CCCC[C@@H]1SC[C@@H]2NC(=O)N[C@@H]21)[C@@H](C)O)C(=O)N[C@@H](CC(C)C)C(=O)N[C@H](C(=O)N[C@@H](CS)C(=O)N[C@@H](Cc1c[nH]cn1)C(=O)N[C@@H](CCC(N)=O)C(=O)N[C@@H](CCCNC(=N)N)C(=O)N[C@@H](CCCNC(=N)N)C(=O)N[C@H](C(=O)N[C@@H](CCC(N)=O)C(=O)N[C@@H](CCCNC(=N)N)C(=O)N[C@@H](CCCCN)C(=O)N[C@@H](CCC(=O)O)C(=O)N[C@H](C(=O)N[C@H](C(=O)N[C@@H](C)C(=O)O)C(C)C)[C@@H](C)O)[C@@H](C)O)[C@@H](C)O [GluR5-2 (rat)]
Kd ([1]; PDZ Domain 1, 2, titration of the PL peptide, read-out: Peptide Optimal Conc (Kd, dissociation constant)): 100 nM

SMILES: CC(C)C[C@H](NC(=O)[C@H](C)NC(=O)[C@H](CO)NC(=O)CNC(=O)[C@@H](NC(=O)CCCC[C@@H]1SC[C@@H]2NC(=O)N[C@@H]21)[C@@H](C)O)C(=O)N[C@@H](CCC(N)=O)C(=O)N[C@@H](C)C(=O)N[C@@H](Cc1c[nH]c2ccccc12)C(=O)N[C@@H](CCCNC(=N)N)C(=O)N[C@@H](Cc1c[nH]cn1)C(=O)N[C@H](C(=O)N[C@@H](CO)C(=O)N[C@@H](CCCNC(=N)N)C(=O)N[C@@H](CCC(N)=O)C(=O)N[C@@H](C)C(=O)N[C@H](C(=O)N[C@@H](CCC(=O)O)C(=O)N[C@@H](CO)C(=O)N[C@H](C(=O)N[C@H](C(=O)O)C(C)C)[C@@H](C)O)[C@@H](C)O)[C@@H](C)O [HPV E6 #66 (modified)] (Biotin-TGSALQAWRHTSRQATESTV-OH; C-terminus assumed)
Kd ([1]; PDZ Domain 1, 2, read-out: Peptide Optimal Conc (Kd by titration of the PL peptide)): 1000 nM
Kd ([1]; PDZ Domain 2, read-out: Peptide Optimal Conc (Kd by titration of the PL peptide)): 3500 nM

Kd ([2]; PDZ Mint 1, PDZ Domain 1, 2, read-out: Peptide Optimal Conc (non-zero value: Kd by titration of the PL peptide)): 800 nM
SMILES: CC[C@H](C)[C@H](NC(=O)CNC(=O)[C@H](CO)NC(=O)[C@H](Cc1ccccc1)NC(=O)[C@@H](NC(=O)[C@H](CS)NC(=O)CNC(=O)CNC(=O)[C@H](C)NC(=O)[C@@H]1CCCN1C(=O)[C@@H](NC(=O)[C@@H]1CCCN1C(=O)CCCC[C@@H]1SC[C@@H]2NC(=O)N[C@@H]21)[C@@H](C)CC)[C@@H](C)O)C(=O)N[C@@H](Cc1ccccc1)C(=O)N1CCC[C@H]1C(=O)N[C@H](C(=O)N[C@@H](CC(C)C)C(=O)N[C@H](C(=O)N[C@@H](CO)C(=O)N1CCC[C@H]1C(=O)N[C@@H](CC(C)C)C(=O)O)[C@@H](C)O)[C@@H](C)O [KIA 1481] (Biotin-PIPAGGCTFSGIFPTLTSPL-OH; C-terminus assumed)

Kd ([2]; PDZ Mint 1, PDZ Domain 1, titration of the PL peptide, read-out: Peptide Optimal Conc (Kd, dissociation constant)): 2000 nM
SMILES: CC[C@H](C)[C@H](NC(=O)[C@H](Cc1ccc(O)cc1)NC(=O)[C@@H](NC(=O)[C@@H]1CCCN1C(=O)[C@H](CCC(N)=O)NC(=O)[C@H](CCC(=O)O)NC(=O)[C@H](CCC(N)=O)NC(=O)[C@H](C)NC(=O)[C@@H](NC(=O)[C@H](CC(C)C)NC(=O)[C@H](CC(C)C)NC(=O)[C@H](CCCNC(=N)N)NC(=O)[C@H](Cc1ccc(O)cc1)NC(=O)[C@H](CCSC)NC(=O)[C@H](C)NC(=O)[C@H](C)NC(=O)[C@@H]1CCCN1C(=O)[C@H](CCSC)NC(=O)[C@@H](NC(=O)[C@H](CCCCN)NC(=O)CCCC[C@@H]1SC[C@@H]2NC(=O)N[C@@H]21)[C@@H](C)O)[C@@H](C)O)C(C)C)C(=O)O [MINT-1] (Biotin-KTMPAAMYRLLTAQEQPVYI-OH; C-terminus assumed)

SMILES: CC[C@H](C)[C@H](NC(=O)[C@H](C)NC(=O)[C@H](CC(C)C)NC(=O)[C@H](Cc1c[nH]c2ccccc12)NC(=O)[C@H](Cc1c[nH]cn1)NC(=O)[C@H](CCC(N)=O)NC(=O)[C@H](CC(C)C)NC(=O)[C@H](CCC(N)=O)NC(=O)[C@H](Cc1ccccc1)NC(=O)[C@H](CCC(N)=O)NC(=O)[C@H](CCCNC(=N)N)NC(=O)[C@@H](NC(=O)[C@H](CC(=O)O)NC(=O)[C@H](CCCNC(=N)N)NC(=O)[C@H](CCC(N)=O)NC(=O)[C@H](C)NC(=O)[C@@H](NC(=O)[C@H](CC(C)C)NC(=O)[C@H](Cc1c[nH]cn1)NC(=O)[C@H](Cc1c[nH]cn1)NC(=O)CCCC[C@@H]1SC[C@@H]2NC(=O)N[C@@H]21)C(C)C)[C@@H](C)CC)C(=O)O [noradrenaline transporter] (Biotin-HHLVAQRDIRQFQLQHWLAI-OH; C-terminus assumed)
Kd ([2]; Peptide Optimal Conc (Kd by titration of the PL peptide), PDZ Mint 1, PDZ Domain 1, 2): 500 nM

Kd ([2]; PDZ Mint 1, PDZ Domain 1, 2, titration of the PL peptide, read-out: Peptide Optimal Conc (Kd, dissociation constant)): 6000 nM
SMILES: CC[C@H](C)[C@H](NC(=O)[C@H](Cc1ccc(O)cc1)NC(=O)[C@H](CC(C)C)NC(=O)[C@H](CCC(N)=O)NC(=O)[C@H](Cc1c[nH]cn1)NC(=O)[C@H](CO)NC(=O)[C@H](C)NC(=O)[C@H](CC(C)C)NC(=O)[C@@H](NC(=O)[C@H](CC(=O)O)NC(=O)[C@H](CCSC)NC(=O)[C@H](Cc1ccccc1)NC(=O)[C@@H]1CCCN1C(=O)[C@H](CCCNC(=N)N)NC(=O)[C@@H](NC(=O)[C@H](CC(C)C)NC(=O)[C@H](CC(N)=O)NC(=O)[C@H](CC(=O)O)NC(=O)[C@@H](NC(=O)[C@H](CO)NC(=O)CCCC[C@@H]1SC[C@@H]2NC(=O)N[C@@H]21)[C@@H](C)O)C(C)C)[C@@H](C)O)C(=O)O [presenilin-2] (Biotin-STDNLVRPFMDTLASHQLYI-OH; C-terminus assumed)
